Results taken from PubChem BioAssay (NCI).
Values joined by “and” are separate entries in the source; they are usually repeats but may differ in a detail not shown here. Identical values can stand only once.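 Five concentrations, 48 hours, 96-well plates. The concentration for 50% growth inhibition is given as GI50. TGI is the concentration that stops growth completely.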

Tested on: M19-MEL melanoma
Assay: NCI tumour cell line growth inhibition, 48 h

`COC(=O)C1=C(C(=O)OC)C2=S(SC3=C2CCCC3)S1` (stereo unspecified) and `COc1cc2c3c(c1OC)-c1cc4c(cc1CC3(C#N)N(C(=O)c1ccccc1)CC2)OCO4` (stereo unspecified) cannot be ordered by TGI: over 100 µM for the first, over 100 µM for the second.

`CC1(C)CC(=O)CC(=Nc2ccc([N+](=O)[O-])cc2)C1` gave a TGI of over 100 µM.

Molecule `C/C(=N\NC(=S)N1CCCCCC1)c1ccccn1` has a GI50 of 0.109 µM.

For `C/C(=N\NC(=S)N1CCCCCC1)c1ccccn1`, the TGI was 1.06 µM and 0.687 µM.

Tested on: SN12K1 renal
Assay: NCI tumour cell line growth inhibition, 48 h

`Nc1ccn(C2OC(CO)C(O)C2O)c(=O)n1` (stereo unspecified) gave a TGI of over 500 µM.

Tested on: P388/ADR leukemia
Assay: NCI tumour cell line growth inhibition, 48 h

For `Nc1ccn(C2OC(CO)C(O)C2O)c(=O)n1` (stereo unspecified), the TGI was 1.15 µM.

Tested on: SNB-78 CNS
Assay: NCI tumour cell line growth inhibition, 48 h

`Cn1cnnc1Sc1c([N+](=O)[O-])ncn1C` and `CC1(C)CC(=O)CC(=Nc2ccc([N+](=O)[O-])cc2)C1` cannot be ordered by TGI: over 100 µM for the first, over 100 µM for the second.

`C=CCC1(CN(C)C)CC/C(=C\c2ccc(Cl)cc2)C1=O` (stereo unspecified) and `CC(=O)N1CCC(=O)/C(=C/c2ccccc2)C1` cannot be ordered by TGI: over 72 µM for the first, over 100 µM for the second.

Going from `C[Si](C)(C)/C(I)=C/CO` to `C[Si](C)(C)/C(Br)=C\CCN1C(=O)CCC1=O`, the TGI rises from 95.3 µM to over 100 µM.

`C[N+](C)(C)CC1CCC/C1=N\OC(=O)c1ccccc1` (stereo unspecified) and `CCOC(=O)C1SC(=Nc2ccccc2)N=C1C` (stereo unspecified) cannot be ordered by TGI: over 100 µM for the first, over 100 µM for the second.

Compared with `Cc1ccc(S(=O)OCc2c(C)c(C)c(COS(=O)c3ccc(C)cc3)c(C)c2C)cc1` (stereo unspecified), `COc1ccc2c(c1)c[n+](C)c1c3cc(OC)c(OC)cc3ccc21` is lower in TGI: over 100 µM for the first, 22.4 µM for the second.

`C[C@]12CCC(=O)C=C1CC[C@@H]1C2CC[C@]2(C)Nc3[nH]ncc3CC12` (stereo partly specified) and `CC(C)(C)[Si](C)(C)OC1C(=O)C[C@H]2CCCC[C@@H]12` (stereo partly specified) cannot be ordered by TGI: over 100 µM for the first, over 100 µM for the second.

Going from `CCN(CC)CCSc1c2ccccc2nc2c(OC)ccc(OC)c12` to `COc1cc2c3c(c1OC)-c1cc4c(cc1CC3(C#N)N(C(=O)c1ccccc1)CC2)OCO4` (stereo unspecified), the TGI rises from 22.3 µM to 42.6 µM (1.9-fold).

Going from `[N-]=[N+]=N/C1=C/CCCCC(=O)C1` to `C/C(=N\NC(=S)N1CCCCCC1)c1ccccn1`, the TGI falls from over 100 µM to 13.7 µM.

First: C=COC(=O)N[C@H]1CCc2cc(OC)c(OC)c(OC)c2-c2ccc(SC)c(=O)cc21
Second: O=C1CCC(=O)c2c1c(O)c1ccncc1c2O
The TGI of the first is higher: over 100 µM for the first, 38.4 µM for the second.

Compared with `Cc1ccc(NC(=O)CCc2nnc(N)o2)cc1`, `C=CCN1CCC23c4c5ccc(O)c4OC2C(=NN=C2CCC4(O)C6Cc7ccc(O)c8c7C4(CCN6CC=C)C2O8)CCC3(O)C1C5` (stereo unspecified) is lower in TGI: over 100 µM for the first, 68 µM for the second.

Work on `CSc1nc(NC2OC(COC(C)=O)C(OC(C)=O)C(OC(C)=O)C2OC(C)=O)c(N=CC=Nc2c(NC3OC(COC(C)=O)C(OC(C)=O)C(OC(C)=O)C3OC(C)=O)nc(SC)n(C)c2=O)c(=O)n1C` (stereo unspecified) yielded a TGI of over 93.7 µM.

In the case of `C/C(=N\NC(=S)N1CCCCCC1)c1ccccn1`, the GI50 is reported as 0.355 µM.

Tested on: DLD-1 colon
Assay: NCI tumour cell line growth inhibition, 48 h

First: Cn1cnnc1Sc1c([N+](=O)[O-])ncn1C
Second: CC1(C)CC(=O)CC(=Nc2ccc([N+](=O)[O-])cc2)C1
The TGI of the first is higher: over 100 µM for the first, 49.6 µM for the second.

Going from `C=CCC1(CN(C)C)CC/C(=C\c2ccc(Cl)cc2)C1=O` (stereo unspecified) to `CC(=O)N1CCC(=O)/C(=C/c2ccccc2)C1`, the TGI falls from over 94.4 µM to 66.2 µM.

`C[N+](C)(C)CC1CCC/C1=N\OC(=O)c1ccccc1` (stereo unspecified) and `CCOC(=O)C1SC(=Nc2ccccc2)N=C1C` (stereo unspecified) cannot be ordered by TGI: over 100 µM for the first, over 100 µM for the second.

Compared with `C[Si](C)(C)/C(Br)=C\CCN1C(=O)CCC1=O`, `O=C1CCC(=O)c2c1c(O)c1ccncc1c2O` is lower in TGI: over 100 µM for the first, 28.1 µM for the second.

`Cc1ccc(S(=O)OCc2c(C)c(C)c(COS(=O)c3ccc(C)cc3)c(C)c2C)cc1` (stereo unspecified) and `CCOC(=O)c1ccc(N=Nc2cc(C(=O)OCC)ccc2O)cc1` cannot be ordered by TGI: over 100 µM for the first, over 100 µM for the second.

`C[C@]12CCC(=O)C=C1CC[C@@H]1C2CC[C@]2(C)Nc3[nH]ncc3CC12` (stereo partly specified) and `CC(C)(C)[Si](C)(C)OC1C(=O)C[C@H]2CCCC[C@@H]12` (stereo partly specified) cannot be ordered by TGI: over 100 µM for the first, over 100 µM for the second.

Going from `COc1ccc2c(c1)c[n+](C)c1c3cc(OC)c(OC)cc3ccc21` to `COc1cc2c3c(c1OC)-c1cc4c(cc1CC3(C#N)N(C(=O)c1ccccc1)CC2)OCO4` (stereo unspecified), the TGI rises from 18 µM to over 100 µM.

`[N-]=[N+]=N/C1=C/CCCCC(=O)C1` and `COC(=O)C1=C(C(=O)OC)C2=S(SC3=C2CCCC3)S1` (stereo unspecified) cannot be ordered by TGI: over 100 µM for the first, over 100 µM for the second.

`Cc1ccc(NC(=O)CCc2nnc(N)o2)cc1` and `CN(C)CCNC(=O)c1cccc2c(Nc3ccc(S(=O)(=O)N=C(N)N)cc3)c3ccccc3nc12` cannot be ordered by TGI: over 100 µM for the first, over 100 µM for the second.

`CSc1nc(NC2OC(COC(C)=O)C(OC(C)=O)C(OC(C)=O)C2OC(C)=O)c(N=CC=Nc2c(NC3OC(COC(C)=O)C(OC(C)=O)C(OC(C)=O)C3OC(C)=O)nc(SC)n(C)c2=O)c(=O)n1C` (stereo unspecified) and `C=CCN1CCC23c4c5ccc(O)c4OC2C(=NN=C2CCC4(O)C6Cc7ccc(O)c8c7C4(CCN6CC=C)C2O8)CCC3(O)C1C5` (stereo unspecified) cannot be ordered by TGI: over 100 µM for the first, over 100 µM for the second.

`Nc1ccn(C2OC(CO)C(O)C2O)c(=O)n1` (stereo unspecified) showed a TGI of over 500 µM.

`C/C(=N\NC(=S)N1CCCCCC1)c1ccccn1` was tested, and the TGI was 1.38 µM and 4.44 µM.

Tested on: RXF-631 renal
Assay: NCI tumour cell line growth inhibition, 48 h

`Cn1cnnc1Sc1c([N+](=O)[O-])ncn1C` and `CC1(C)CC(=O)CC(=Nc2ccc([N+](=O)[O-])cc2)C1` cannot be ordered by TGI: over 100 µM for the first, over 100 µM for the second.

Compared with `C[Si](C)(C)/C(I)=C/CO`, `C[Si](C)(C)/C(Br)=C\CCN1C(=O)CCC1=O` is higher in TGI: 83.8 µM for the first, over 100 µM for the second.

`CC(=O)N1CCC(=O)/C(=C/c2ccccc2)C1` and `CCOC(=O)C1SC(=Nc2ccccc2)N=C1C` (stereo unspecified) cannot be ordered by TGI: over 100 µM for the first, over 100 µM for the second.

Going from `CCN(CC)CCSc1c2ccccc2nc2c(OC)ccc(OC)c12` to `Cc1ccc(NC(=O)CCc2nnc(N)o2)cc1`, the TGI rises from 17.9 µM to over 31.6 µM.

Going from `CSc1nc(NC2OC(COC(C)=O)C(OC(C)=O)C(OC(C)=O)C2OC(C)=O)c(N=CC=Nc2c(NC3OC(COC(C)=O)C(OC(C)=O)C(OC(C)=O)C3OC(C)=O)nc(SC)n(C)c2=O)c(=O)n1C` (stereo unspecified) to `C=CCN1CCC23c4c5ccc(O)c4OC2C(=NN=C2CCC4(O)C6Cc7ccc(O)c8c7C4(CCN6CC=C)C2O8)CCC3(O)C1C5` (stereo unspecified), the TGI falls from over 100 µM to 50.2 µM.

First: O=C1CCC(=O)c2c1c(O)c1ccncc1c2O
Second: C/C(=N\NC(=S)N1CCCCCC1)c1ccccn1
The TGI of the first is 19-fold higher: 54.8 µM for the first, 2.83 µM for the second.

Tested on: P388 leukemia
Assay: NCI tumour cell line growth inhibition, 48 h

For `Nc1ccn(C2OC(CO)C(O)C2O)c(=O)n1` (stereo unspecified), the TGI was 1.81 µM.

Tested on: DMS 114 small cell lung
Assay: NCI tumour cell line growth inhibition, 48 h

`Cn1cnnc1Sc1c([N+](=O)[O-])ncn1C` and `CC1(C)CC(=O)CC(=Nc2ccc([N+](=O)[O-])cc2)C1` cannot be ordered by TGI: over 100 µM for the first, over 100 µM for the second.

Going from `C=CCC1(CN(C)C)CC/C(=C\c2ccc(Cl)cc2)C1=O` (stereo unspecified) to `CC(=O)N1CCC(=O)/C(=C/c2ccccc2)C1`, the TGI falls from over 72.2 µM to 30.8 µM.

`C[N+](C)(C)CC1CCC/C1=N\OC(=O)c1ccccc1` (stereo unspecified) and `CCOC(=O)C1SC(=Nc2ccccc2)N=C1C` (stereo unspecified) cannot be ordered by TGI: over 100 µM for the first, over 100 µM for the second.

First: C[Si](C)(C)/C(Br)=C\CCN1C(=O)CCC1=O
Second: O=C1CCC(=O)c2c1c(O)c1ccncc1c2O
The TGI of the first is higher: over 100 µM for the first, 25.4 µM for the second.

`Cc1ccc(S(=O)OCc2c(C)c(C)c(COS(=O)c3ccc(C)cc3)c(C)c2C)cc1` (stereo unspecified) and `CCOC(=O)c1ccc(N=Nc2cc(C(=O)OCC)ccc2O)cc1` cannot be ordered by TGI: over 100 µM for the first, over 100 µM for the second.

`C[C@]12CCC(=O)C=C1CC[C@@H]1C2CC[C@]2(C)Nc3[nH]ncc3CC12` (stereo partly specified) and `CC(C)(C)[Si](C)(C)OC1C(=O)C[C@H]2CCCC[C@@H]12` (stereo partly specified) cannot be ordered by TGI: over 100 µM for the first, over 100 µM for the second.

Compared with `COc1ccc2c(c1)c[n+](C)c1c3cc(OC)c(OC)cc3ccc21`, `CCN(CC)CCSc1c2ccccc2nc2c(OC)ccc(OC)c12` is 2.2-fold lower in TGI: 7.14 µM for the first, 3.24 µM for the second.

`[N-]=[N+]=N/C1=C/CCCCC(=O)C1` and `COc1cc2c3c(c1OC)-c1cc4c(cc1CC3(C#N)N(C(=O)c1ccccc1)CC2)OCO4` (stereo unspecified) cannot be ordered by TGI: over 100 µM for the first, over 85.1 µM for the second.

First: Cc1ccc(NC(=O)CCc2nnc(N)o2)cc1
Second: CN(C)CCNC(=O)c1cccc2c(Nc3ccc(S(=O)(=O)N=C(N)N)cc3)c3ccccc3nc12
The TGI of the first is higher: over 100 µM for the first, 15.1 µM for the second.

First: CSc1nc(NC2OC(COC(C)=O)C(OC(C)=O)C(OC(C)=O)C2OC(C)=O)c(N=CC=Nc2c(NC3OC(COC(C)=O)C(OC(C)=O)C(OC(C)=O)C3OC(C)=O)nc(SC)n(C)c2=O)c(=O)n1C (stereo unspecified)
Second: C=CCN1CCC23c4c5ccc(O)c4OC2C(=NN=C2CCC4(O)C6Cc7ccc(O)c8c7C4(CCN6CC=C)C2O8)CCC3(O)C1C5 (stereo unspecified)
The TGI of the first is higher: over 100 µM for the first, 60.8 µM for the second.

`Nc1ccn(C2OC(CO)C(O)C2O)c(=O)n1` (stereo unspecified) showed a TGI of 417 µM.

In the case of `C/C(=N\NC(=S)N1CCCCCC1)c1ccccn1`, the TGI is reported as 0.138 µM and 0.0298 µM.
